{
  "source": "patent US20070249582A1",
  "about": "“Method of Treating Substance Abuse with Quetiapine” (ASTRAZENECA AB, priority 2001, published 2007)",
  "system": "outpatients with bipolar disorder and cocaine dependence",
  "key": {"[1]": {"conditions": "baseline to exit, all evaluable patients"}, "[2]": {"conditions": "baseline to week 12, LOCF, p<0.003"}},
  "data": [
    {"smiles": "OCCOCCN1CCN(C2=Nc3ccccc3Sc3ccccc32)CC1", "note": "[Quetiapine, 11-(4-[2-(2-hydroxyethoxy)ethyl]-1-piperazinyl)dibenzo[b,f][1.4]-thiazepine]", "values": [
      {"measurement": "Mean amount spent on drugs at baseline", "setting": "8 completers, baseline, past week", "value": "80.8±105.4 $"},
      {"measurement": "Mean amount spent on drugs at exit", "setting": "8 completers, week 12, past week", "value": "10.0±17.7 $"},
      {"measurement": "Reduction in amount spent on drugs", "setting": "8 subjects who completed all 12 weeks, p=0.043", "value": 87, "unit": "%"},
      {"measurement": "Dollar amount spent on drugs", "setting": "[1]", "value": "did not decrease significantly"},
      {"measurement": "Percent of positive urine samples", "setting": "[1]", "value": "did not decrease significantly"},
      {"measurement": "Brief Psychiatric Rating Scale (BPRS) score", "setting": "[2]", "value": "improved significantly"},
      {"measurement": "Young Mania Rating Scale (YMRS) score", "setting": "[2]", "value": "improved significantly"},
      {"measurement": "Hamilton Depression Scale (HDRS) score", "setting": "baseline to week 12, LOCF, p<0.003, mean maximum dose 312.5±95.6 mg/day", "value": "improved significantly"},
      {"measurement": "Cravings as measured by the cocaine craving questionnaire (CCQ)", "setting": "baseline to week 12, p<0.05", "value": "significantly decreased"},
      {"measurement": "Tolerability", "setting": "in vivo", "value": "well tolerated"},
      {"measurement": "Withdrawals because of side effects", "setting": "in vivo", "value": "no subjects withdrawing because of side effects"}
    ]}
  ]
}
